# Assay results reported in patent publication US9464044B2, “Compound having ability to inhibit 11Beta-HSD1 enzyme or pharmaceutically acceptable salt thereof, method for producing same, and pharmaceutical composition containing same as active ingredient” (AHN-GOOK PHARMACEUTICAL CO., LTD., priority 2012, dated 2016).
# Molecular target: 11β-HSD1 (Homo sapiens (Human), UniProt P28845)
# Experiment: 11β-HSD1 inhibiting activity, HTRF assay with human microsomal fractions
# Format: biochemical
# Settings: 160 nM cortisone, 200 μM NADPH, 2 h at 37° C.
# Method: The inhibiting activity of 11β-HSD1 derived from microsomal fractions was measured using the HTRF assay (62CO2PEB, Cisbio). […] Europium (Eu^3+) cryptate and XL665-conjugated cortisol were then added to each well and incubated for an additional 2 h at room temperature. The Cortisol concentration was calculated u sing a calibration curve. The IC50 values were calculated from dose response curves using GraphPad Prism software.
# Chain of 11β-HSD1 (P28845 whole entry): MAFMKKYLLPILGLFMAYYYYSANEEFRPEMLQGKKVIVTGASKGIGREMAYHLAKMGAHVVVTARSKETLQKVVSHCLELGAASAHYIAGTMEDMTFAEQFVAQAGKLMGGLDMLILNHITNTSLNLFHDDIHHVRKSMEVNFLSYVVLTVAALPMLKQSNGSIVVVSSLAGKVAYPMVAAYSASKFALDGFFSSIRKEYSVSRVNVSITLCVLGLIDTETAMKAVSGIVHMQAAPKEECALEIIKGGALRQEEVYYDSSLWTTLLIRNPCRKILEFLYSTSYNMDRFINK
row,Structure (SMILES),IC50 [µM]
1,"Cc1c(Cl)cccc1S(=O)(=O)NCC(C)(C)C(=O)NC1C2CC3CC1CC(C(N)=O)(C3)C2 (stereo not shown) [Example 70, E-4-[3-(3-chloro-2-methyl-benzenesulfonylamino)-2,2-dimethylpropanamido]adamantan-1-carboxylic acid amide]",0.0062
2,"NC(=O)C12CC3CC(C1)C(NC(=O)C1(NS(=O)(=O)c4ccc(F)c(F)c4F)CC1)C(C3)C2 (stereo not shown) [Example 47, E-4-[1-(2,3,4-trifluoro-benzenesulfonylamino)cyclopropanecarboxamido]-adamantan-1-carboxylic acid amide]",0.495
3,"Cc1cc(S(=O)(=O)NC2(C(=O)NC3C4CC5CC3CC(C(N)=O)(C5)C4)CC2)c(Cl)cc1Cl (stereo not shown) [Example 43, E-4-[1-(2,4-dichloro-5-methyl-benzenesulfonylamino)cyclopropanecarboxamido]-adamantan-1-carboxylic acid amide]",0.0297
4,"NC(=O)C12CC3CC(C1)C(NC(=O)c1cccc(NS(=O)(=O)c4cc(F)cc(Cl)c4)c1)C(C3)C2 (stereo not shown) [Example 118, E-4-[3-(3-chloro-5-fluoro-benzenesulfonylamino)-benzamido]-adamantan-1-carboxylic acid amide]",0.0204
5,NC(=O)C12CC3CC(C1)C(NC(=O)c1cccc(NS(=O)(=O)c4ccccc4C(F)(F)F)c1)C(C3)C2 (stereo not shown) [Example 115],0.0191
6,"NC(=O)C12CC3CC(C1)C(NC(=O)C1(CNC(=O)N4CCNc5ccccc54)CC1)C(C3)C2 (stereo not shown) [Example 146, E-3,4-dihydro-2H-quinoxalin-1-carboxylic acid[1-(5-carbamoyl-adamantan-2-ylcarbamoyl)-cyclopropylmethyl]-amide]",0.128
7,"Cc1cc(S(=O)(=O)NC2(C(=O)NC3C4CC5CC3CC(C(N)=O)(C5)C4)CC2)c(F)cc1Cl (stereo not shown) [Example 46, E-4-[1-(2-fluoro-4-chloro-5-methyl-benzenesulfonylamino)cyclopropanecarboxamido]-adamantan-1-carboxylic acid amide]",0.0347
8,"Cc1cccc(F)c1S(=O)(=O)NC1(C(=O)NC2C3CC4CC2CC(C(N)=O)(C4)C3)CC1 (stereo not shown) [Example 40, E-4-[1-(2-fluoro-6-methyl-benzenesulfonylamino)cyclopropanecarboxamido]-adamantan-1-carboxylic acid amide]",0.0017
9,"Cc1n[nH]c(C)c1S(=O)(=O)Nc1cccc(C(=O)NC2C3CC4CC2CC(C(N)=O)(C4)C3)c1 (stereo not shown) [Example 108, E-4-[3-(3,5-dimethyl-1H-pyrazole-4-sulfonylamino)-benzamido]-adamantan-1-carboxylic acid amide]",0.0512
10,"NC(=O)C12CC3CC(C1)C(NC(=O)C1(CNS(=O)(=O)c4cc(Cl)c(Cl)cc4F)CC1)C(C3)C2 (stereo not shown) [Example 16, E-4-[1-((4,5-dichloro-2-fluoro-benzenesulfonylamino)methyl)cyclopropanecarboxamido]-adamantan-1-carboxylic acid amide]",0.005
11,"NC(=O)C12CC3CC(C1)C(NC(=O)c1cccc(NS(=O)(=O)C4CC4)c1)C(C3)C2 (stereo not shown) [Example 138, E-4-(3-(cyclopropanesulfonamido)benzamido)adamantan-1-carboxylic acid amide]",0.0621
12,"NC(=O)C12CC3CC(C1)C(NC(=O)c1cccc(NS(=O)(=O)c4ccc(C(F)(F)F)c(Cl)c4)c1)C(C3)C2 (stereo not shown) [Example 114, E-4-[3-(3-chloro-4-(trifluoromethyl)benzenesulfonylamino)benzamido]adamantan-1-carboxylic acid amide]",0.0307
13,"Cn1nccc1S(=O)(=O)NC1(C(=O)NC2C3CC4CC2CC(C(N)=O)(C4)C3)CC1 (stereo not shown) [Example 58, E-4-[1-(1-methyl-1H-pyrazole-5-sulfonylamino)cyclopropanecarboxamido]-adamantan-1-carboxylic acid amide]",0.0173
14,NC(=O)C12CC3CC(C1)C(NC(=O)c1cccc(NS(=O)(=O)c4ccccc4)c1)C(C3)C2 (stereo not shown) [Example 105],0.0427
15,"CCN(CC1(C(=O)NC2C3CC4CC2CC(C(N)=O)(C4)C3)CC1)S(=O)(=O)c1ccccc1F (stereo not shown) [Example 32, E-4-[1-((N-ethyl-fluoro-benzenesulfonylamino)methyl)cyclopropanecarboxamido]-adamantan-1-carboxylic acid amide]",0.0014
16,"NC(=O)C12CC3CC(C1)C(NC(=O)c1cccc(NS(=O)(=O)c4ccco4)c1)C(C3)C2 (stereo not shown) [Example 103, E-4-[3-(furan-2-sulfonylamino)-benzamido]-adamantan-1-carboxylic acid amide]",0.0238
17,"NC(=O)C12CC3CC(C1)C(NC(=O)C1(NS(=O)(=O)c4cc(Cl)c(Cl)cc4F)CC1)C(C3)C2 (stereo not shown) [Example 45, E-4-[1-(2-fluoro-4,5-dichloro-benzenesulfonylamino)cyclopropanecarboxamido]-adamantan-1-carboxylic acid amide]",0.0325

# Second part, the compound after the results:
row,IC50 [µM],Structure (SMILES)
1,0.0048,NC(=O)C12CC3CC(C1)C(NC(=O)c1cccc(NS(=O)(=O)c4ccccc4Cl)c1)C(C3)C2 (stereo not shown) [Example 106]
2,0.0151,"NC(=O)C12CC3CC(C1)C(NC(=O)c1cccc(NS(=O)(=O)c4cc(F)ccc4F)c1)C(C3)C2 (stereo not shown) [Example 122, E-4-[3-(2,5-difluoro-benzenesulfonylamino)-benzamido]-adamantan-1-carboxylic acid amide]"
3,0.0083,"O=C(NC1CC2CCC1C2)C1(NS(=O)(=O)c2cccc(Cl)c2)CC1 (stereo not shown) [Example 55, N-(bicyclo[2.2.1]heptan-2-yl)-1-(3-chloro-benzenesulfonylamino)cyclopropanecarboxamide]"
4,0.111,NC(=O)C12CC3CC(C1)C(NC(=O)C1(NC(=O)c4ccc(C(F)(F)F)cn4)CC1)C(C3)C2 (stereo not shown) [Example 64]
5,0.0012,"Cn1ccc2cc(S(=O)(=O)NCC3(C(=O)NC4C5CC6CC4CC(C(N)=O)(C6)C5)CC3)ccc21 (stereo not shown) [Example 26, E-4-[1-((1-methyl-1H-indole-5-sulfonylamino)methyl)cyclopropanecarboxamido]-adamantan-1-carboxylic acid amide]"
6,0.0272,"NC(=O)C12CC3CC(C1)C(NC(=O)c1cccc(NS(=O)(=O)c4cccc(F)c4)c1)C(C3)C2 (stereo not shown) [Example 120, E-4-[3-(3-fluoro-benzenesulfonylamino)-benzamido]-adamantan-1-carboxylic acid amide]"
7,0.0299,"NC(=O)CCC12CC3CC(C1)C(NC(=O)C1(CNS(=O)(=O)c4ccccc4F)CC1)C(C3)C2 (stereo not shown) [Example 34, E-N-(5-(3-amino-3-oxopropyl)adamantan-2-yl)-1-((2-fluoro-benzenesulfonylamino)methyl)cyclopropanecarboxamide]"
8,0.0064,"NC(=O)C12CC3CC(C1)C(NC(=O)C1(NS(=O)(=O)c4ccc(F)cc4)CC1)C(C3)C2 (stereo not shown) [Example 42, E-4-[1-(4-fluoro-benzenesulfonylamino)cyclopropanecarboxamido]-adamantan-1-carboxylic acid amide]"
9,0.0027,"Cc1c(Cl)cccc1S(=O)(=O)NCC1(C(=O)NC2C3CC4CC2CC(C(N)=O)(C4)C3)CC1 (stereo not shown) [Example 5, E-4-[1-((3-chloro-2-methyl-benzenesulfonylamino)methyl)cyclopropanecarboxamido]-adamantan-1-carboxylic acid amide]"
10,0.0096,NC(=O)C12CC3CC(C1)C(NC(=O)C1(CNC(=O)c4ccc(F)c(F)c4)CC1)C(C3)C2 (stereo not shown) [Example 25]
11,0.0791,NC(=O)C12CC3CC(C1)C(NC(=O)C1(NS(=O)(=O)c4ccc(F)cc4F)CC1)C(C3)C2 (stereo not shown) [Example 44]
